Results reported in patent publication US7300770B2, “Detection of microbe contamination on elastomeric articles” (Kimberly-Clark Worldwide, Inc., priority 2004, dated 2007).

How the values were obtained:
[1] = test system: S. aureus; experiment: Titration of microorganisms with Reichardt's dye on cellulosic towel; set-up: species or system Staphylococcus aureus; conditions: Gram(+), 10^7 CFU/mL, 100 microliters
[2] = test system: E. coli; experiment: as above; set-up: species or system Escherichia coli; conditions: Gram(-), 10^7 CFU/mL, 100 microliters
[3] = test system: aged chicken juice (bacteria); experiment: Dye spray on hot plate: aged chicken juice versus canned chicken broth; conditions: 160 mg/10 mL isopropanol spray
Source text: Canned chicken broth was utilized as a control that would contain chicken derived products such as lipids, protein, etc., to check for potential interferences from these naturally occurring materials. Freshly opened Swanson® Chicken Broth was pipette onto a hot plate surface and wiped dry with a SCOTT® towel. Juice from raw chicken that had been stored at room temperature for several days was also pipetted onto the hot plate and wiped dry as a positive control. […] Thus, in the case of chicken, the presence of microbes was clearly responsible for triggering the change in color, and not some other component, such as chicken fat or proteins.

[4] = test system: vaginal fluid samples; experiment: Dye-coated stickers tested with vaginal fluid samples
Description: A sticker of each concentration was tested with normal, BV positive/pH positive, and BV negative/pH positive vaginal fluid samples. […] The three states of color change were easily distinguishable.

[5] = test system: S. aureus; experiment: Dye coatings from different solvents on towels exposed to S. aureus
Description: The behavior of Reichardt's dye coatings made using various different solvents was evaluated. Solutions of Reichardt's dye in acetonitrile, isopropanol, and xylenes were prepared and the solutions were used to coat SCOTT® kitchen rolls towels and allowed to air-dry. […] Though the color of the dye was less intense than that seen with acetonitrile, the color change due to microbial contamination was still readily observed.

[6] = test system: E. coli; experiment: Dye-coated towel rubbed with dry E. coli colony; conditions: dry colony rubbed onto pre-moistened coated towel
Description: A test using the Reichardt's dye coated paper towel with a “dry” bacteria sample was carried out. Specifically, a dry sample of a colony of E. coli bacteria was lifted off an agar petri dish that contained a series of growing cultures. This dry sample was then rubbed onto a pre-moistened dye coated SCOTT® paper towel. The area where the colony was placed and rubbed turned colorless within 1 to 5 seconds.

[7] = Longest wavelength peak absorption of dyes in three solvents (UV-Visible); assay type: physicochemical
Source text: Reichardt's dye was used without further purification. […] Acetone, methanol, and acetonitrile solvents (HPLC grade) were obtained from Sigma-Aldrich Chemical Co., Inc. A Shimadzu UV-1601 UV-Visible Spectrophotometer (Shimadzu Corporation) was used to measure the longest wavelength peak absorption of the dyes in the range of 400 to 800 nanometers, dissolved in three different solvents, contained in quartz curvettes. The following table contains the results of the testing with the solvents on the left side and dyes across the top.

[8] = test system: Polio virus type 1; conditions: virus diluted serially in media; 50 microliters, 3 minutes
[9] = test system: Rhinovirus; experiment: Virus detection on Reichardt's dye-coated stickers; conditions: virus diluted serially in saline; 50 microliters, 3 minutes
[10] = test system: Influenza A; experiment: Virus detection on Reichardt's dye-coated stickers; conditions: undiluted virus, 50 microliters, 3 minutes
[11] = test system: Rhinovirus
[12] = test system: S. aureus; experiment: Visual quantification of S. aureus on dye-treated paper, with blind study
Description: The color differences at lower concentrations were less distinct, particularly for the brush-coated sheet. A blind study was then conducted. […] Concentrations of these three drops were unknown to two of the experiment participants. After approximately 2 minutes, the drops were removed and blotted. Using the control regions, the concentrations of each sample were each visually estimated by these two persons. Both persons correctly estimated the concentration of the first sample to be 10^6 CFU/mL. […] The persons, however, incorrectly estimated the third sample to be 10^3 CFU/mL. […] The present inventors believe, however, that the concentration of the chromogen and uniformity of the coating may be readily selected to achieve accurate results at such low concentrations.

[13] = test system: E. coli; experiment: Delta E of dye-coated paper and label substrates versus bacteria concentration; conditions: for Delta E of unknown sample / log CFU/ml (estimated): E. coli
Source text: More specifically, indicator strips coated with Reichardt's dye were exposed with decreasing amounts of the bacteria aliquots. A hand-held spectrophotometer was used to after application of each aliquot to determine “Delta E” value (calculated using L*, A*, and B* values) for each CFU/mL concentration. The results are set forth below in Table 4 (for paper) and Table 5 (for label). From the above, standard detection curves were generated as shown in FIGS. 5-7 for S. aureus, P. aeruginosa, and E. coli, respectively. As shown, each type of bacteria changed the color of the dye-treated substrate in a slightly different way, creating a unique standard curve. Thereafter, drops of unknown bacteria concentrations were placed on the stickers and a spectrophotometer was used to measure the “Delta E” of the resulting color. The numerical values obtained for each unknown sample set forth below in Tables 6-7. […] Although a few of the results were not completely accurate, the present inventors believe that improving the uniformity of the coating would further enhance detection accuracy.

[14] = Acid-base reversibility of dye color on towel
[15] = test system: aged chicken juice; experiment: Comparative dyes dropped onto aged chicken juice on paper towel; conditions: aged chicken juice on SCOTT paper towel
[16] = test system: G. vaginalis; experiment: Titration of microorganisms with Reichardt's dye on cellulosic towel; conditions: Gram(-), 10^7 CFU/mL, 100 microliters
[17] = test system: P. aeruginosa; experiment: as above; conditions: Gram(-), 10^7 CFU/mL, 100 microliters
[18] = label substrate, log CFU/ml (actual) 7
[19] = paper substrate, log CFU/ml (actual) 3

[O-]c1c(-c2ccccc2)cc(-[n+]2c(-c3ccccc3)cc(-c3ccccc3)cc2-c2ccccc2)cc1-c1ccccc1 [Reichardt's dye, 4-(2,4,6-triphenylpyridinium-1-yl)-2,6-diphenylphenolate]
Amount of Dye Required for Persistent Color [1]: 90 µL | Amount of Dye Required for Persistent Color [2]: 80 µL | Color change on hot plate surface [3]: only the side containing the aged chicken juice (and thus bacteria) changed color | Color change of dye-coated sticker ([4]; BV negative/pH positive sample): only faintly changed the color | Color change of dye-coated sticker ([4]; BV positive/pH positive sample): next sharpest color change | Color change of dye-coated sticker ([4]; normal vaginal fluid): sharpest color change | Color change of coating where bacterial suspension was placed ([5]; acetonitrile solution-based coating): rapid color change | Color change of coating where bacterial suspension was placed ([5]; isopropanol and xylenes coatings): No visible color change | Time to turn colorless [6]: 1 to 5 s | Color in solvent ([7]; Acetone): (Bluish-green) | Longest wavelength peak absorption ([7]; Acetone): 674 nm | Color in solvent ([7]; Acetonitrile): (Blue) | Longest wavelength peak absorption ([7]; Acetonitrile): 623 nm | Color in solvent ([7]; Methanol): (red) | Longest wavelength peak absorption ([7]; Methanol): 509 nm | Ten-fold dilution down to which stickers changed color [8]: 10^−6 | Ten-fold dilution down to which stickers changed color [9]: 10^−6 | De-colorization of sticker [10]: less than that observed for the other viruses | Dye added until the color persisted ([11]; 100 microliters undiluted virus, 80 mg/10 mL acetonitrile with or without TWEEN 80): approximately 9 drops | Discharge of dye color on virus spot ([11]; surfactant- and non-surfactant-containing solutions): rapidly discharged | S. aureus concentration giving obvious color change ([12]; Neenah Bond paper, 80 mg/10 mL acetonitrile, about 2 minutes): ≥ 10^5 CFU/mL | Visually estimated concentration in blind study ([12]; first sample, actual 10^6 CFU/mL, dip-coated sheet): 10^6 CFU/mL | Visually estimated concentration in blind study ([12]; second sample, actual 10^5 CFU/mL, brush-coated sheet): 10^5 CFU/mL | Visually estimated concentration in blind study ([12]; third sample, actual 10^4 CFU/mL, dip-coated sheet): 10^3 CFU/mL | Delta E of unknown sample [13, 18]: 7.1157 | log CFU/ml (estimated) [13, 18]: 7 | Delta E (E. coli) ([13]; label substrate, log CFU/ml 3): 5.13 | Delta E (E. coli) ([13]; label substrate, log CFU/ml 4): 5.201 | Delta E (E. coli) ([13]; label substrate, log CFU/ml 5): 4.644 | Delta E (E. coli) ([13]; label substrate, log CFU/ml 6): 4.867 | Delta E (E. coli) ([13]; label substrate, log CFU/ml 7): 7.779 | Delta E of unknown sample [13, 19]: 1.3605 | log CFU/ml (estimated) [13, 19]: 5 | Delta E (E. coli) ([13]; paper substrate, log CFU/ml 3): 3.8228 | Delta E (E. coli) ([13]; paper substrate, log CFU/ml 4): 3.0123 | Delta E (E. coli) ([13]; paper substrate, log CFU/ml 5): 2.3320 | Delta E (E. coli) ([13]; paper substrate, log CFU/ml 6): 3.2574 | Delta E (E. coli) ([13]; paper substrate, log CFU/ml 7): 4.3483 | Delta E (E. coli) ([13]; paper substrate, log CFU/ml 8): 9.3642 | Effect of 1 N NaOH on the changed spots ([14]; after acetic acid or pH 2.0 buffer): rapid re-colorization | Color change with acetic acid and pH 2.0 buffer ([14]; dried dye spots on towel): rapid color change | Color change on dropping dye onto aged chicken juice [15]: immediately changed color | Amount of Dye Required for Persistent Color [16]: 90 µL | Amount of Dye Required for Persistent Color [17]: 80 µL
